Experimental data: article PMC7764601 (Molecules, 2020)
Where two headings read alike, the source gives them in different places. Marks after values point to notes of the source that are not given here.

Columns and labels:
mice [1] = assay: “Hot plate” test in mice; format: in vivo; settings: for ED50: read-out: ED50, hot plate test
Method: (§1) The experiments were carried out on male albino Swiss mice (body weight 18–26 g). All of the animals were housed at constant humidity (60%) and temperature (25 °C) and kept on a 12 h light/dark cycle. Animals were fed a standard pellet diet with free access to tap water. All procedures were conducted according to Animal Care and Use Committee guidelines, and approved by the Ethical Committee of Jagiellonian University, Kraków.
(§2) Control and experimental groups consisted of 6–8 animals each. The investigated compounds were administered intraperitoneally as a suspension in 0.5% methylcellulose in a constant volume of 10 mL/kg.
(§3) The statistical significance was calculated using a Student’s t-test. The ED50 values and their confidence limits were calculated according to the method of Litchfield and Wilcoxon.
(§4) Pain reactivity was measured in two tests: “hot plate” test (according to the method of Eddy and Leimbach) and “writhing” test in mice (according to Hendershot and Forsaith).
Animals were placed individually on the metal plate, heated to 55 ± 1 °C. The latency time (s) to the pain reaction (licking of the hind paws or jumping) was recorded by a stop-watch. A cutoff time of 45 s was used to prevent tissue damage.

mice [2] = assay: “Writhing” test in mice (phenylbenzoquinone); format: in vivo; settings: for ED50: Mus musculus, ip, read-out: ED50 (mg/kg) ± SEM, writhing test
Method: as §1, §2, §3, §4
Then, after 25 min, the irritant (phenylbenzoquinone, 0.02% solution, ethanol-water, 5:95) was also administered intraperitoneally in a constant volume of 0.25 mL. Five min after the application of the irritant,a 10 min long period of observation started, in which the number of writhing episodes was counted.
The analgesic effect of individual doses was expressed in percent:(1) % Analgesic effect=100−∑ of writing incidents in experimental group/∑ of writhing incidents in control group×100

mice [3] = settings: compounds obtained previously (series 1 and 2); cited from earlier work
mice [4] = tested on: mice; design: method as in PMID 11234340, PMID 12484538, PMID 15652370; settings: cited from earlier work; for % Inh. of locomotor activity: series 1; for ED50, influence on the locomotor activity: imides described previously (series 1)
mice [5] = tested on: mice; design: method as in PMID 11234340, PMID 12484538, PMID 15652370; settings: series 1, cited from earlier work
in vivo = format: in vivo; settings: male, albino Swiss, mouse, in vivo, ip; mice, intraperitoneal, mortality after 24 h; confidence limits in parentheses
Method: as §1, §2

mice [6] = assay: Spontaneous locomotor activity in mice (photoresistor actometers); format: in vivo; settings: for ED50 / inhibition at 25 mg/kg / inhibition at 50 mg/kg / inhibition at 100 mg/kg / inhibition at 200 mg/kg: Mus musculus, ip; for ED50: confidence limits in parentheses, read-out: ED50 (mg/kg) ± SEM, spontaneous locomotor activity; for inhibition at 25 mg/kg / inhibition at 50 mg/kg / inhibition at 100 mg/kg / inhibition at 200 mg/kg: read-out: Degree of motor inhibition (%); for Number of impulses ± SEM (30min): i.p.
Method: as §1, §2
Spontaneous locomotor activity in mice was measured in circular photoresistoractometers (32 cm in diameter). […] Thirty minutes after the injection of the investigated compounds, mice were placed in the actometers for 30 min. Each crossing of the light beam was recorded automatically. The amount of impulses was noted after 30 min.

[7] = Mus musculus, ip, 0.5 h, read-out: Prolonged Time (%)
[8] = hot plate, mice, dose 100 mg/kg
[9] = hot plate, mice, dose 200 mg/kg
[10] = confidence limits in parentheses
[11] = Mus musculus, ip, 0.5 h, hot plate, mice, dose 200 mg/kg, read-out: Prolonged Time (%)

Structure (SMILES): CC(=O)Oc1ccccc1C(=O)O [ASA, Acetylicacid, reference compound]
- change in vivo at 100 mg/kg (mice [1]; [7]): 11.7%
- change in vivo at 200 mg/kg (mice [1]; [7]): 35.2%
- change in vivo at 400 mg/kg (mice [1]; [7]): 116%
- ED50 (mice [1]; Mus musculus): 267 mg/kg
- Time of Reaction to Pain Stimulus (s) ± SEM (mice [1]; [8]): 16.2 ± 4.9 s
- Time of Reaction to Pain Stimulus (s) ± SEM (mice [1]; [9]): 19.6 ± 4.1 s
- Time of Reaction to Pain Stimulus (s) ± SEM (mice [1]; hot plate, mice, dose 400 mg/kg): 31.3 ± 1.2 s
- ED50 (mice [2]; [10]): 39.1 mg/kg
- Mean no. of writhing ± SEM (mice [2]; i.p., dose 30 mg/kg): 11.2 ± 2.1
- Mean no. of writhing ± SEM (mice [2]; i.p., dose 50 mg/kg): 8.5 ± 1.3
- Mean no. of writhing ± SEM (mice [2]; i.p., dose 100 mg/kg): 3.2 ± 1.1

Structure (SMILES): COc1ccccc1N1CCN(CCCCN2C(=O)c3cc(C)nc(OC)c3C2=O)CC1 [Compound 1R]
- ED50, writhing test (mice [3]): 6.8 mg/kg
- % Inh. of locomotor activity (mice [4]; dose 100 mg/kg): 82.32 ** %
- Thiopental Anesthesia % Prolong. (mice [5]; dose 50 mg/kg): 159.12%
- Thiopental Anesthesia % Prolong. (mice [5]; dose 100 mg/kg): 255.97%

Structure (SMILES): COc1nc(C)cc2c1C(=O)N(CCCCN1CCN(c3ccccc3)CC1)C2=O [Compound 1P]
- ED50, writhing test (mice [3]): 4.5 mg/kg
- % Inh. of locomotor activity (mice [4]; dose 50 mg/kg): 67.14%
- % Inh. of locomotor activity (mice [4]; dose 100 mg/kg): 86.10%
- Thiopental Anesthesia % Prolong. (mice [5]; dose 50 mg/kg): 140.25%
- Thiopental Anesthesia % Prolong. (mice [5]; dose 100 mg/kg): 242.13%

Structure (SMILES): COc1nc(C)cc2c1C(=O)N(CN1CCN(c3ccccc3Cl)CC1)C2=O [Compound 15]
- LD50 at 24 h (in vivo): > 2000 mg/kg
- change in vivo at 200 mg/kg (mice [1]; [11]): 15.7%
- Time of Reaction to Pain Stimulus (s) ± SEM (mice [1]; [8]): 17.0 ± 2.8 s
- Time of Reaction to Pain Stimulus (s) ± SEM (mice [1]; [9]): 19.9 ± 3.9 s
- ED50 (mice [6]): 89.1 ± 4.46 mg/kg
- inhibition at 25 mg/kg (mice [6]; dose 25 mg/kg): 9.52%
- inhibition at 50 mg/kg (mice [6]; dose 50 mg/kg): 42.6%
- inhibition at 100 mg/kg (mice [6]; dose 100 mg/kg): 54%
- inhibition at 200 mg/kg (mice [6]; dose 200 mg/kg): 65.5%
- Number of impulses ± SEM (30min) (mice [6]; dose 25 mg/kg): 399 ± 71
- Number of impulses ± SEM (30min) (mice [6]; dose 50 mg/kg): 253 ± 48
- Number of impulses ± SEM (30min) (mice [6]; dose 100 mg/kg): 203 ± 39
- Number of impulses ± SEM (30min) (mice [6]; dose 200 mg/kg): 152 ± 34
- ED50 (mice [2]; [10]): 19.2 ± 2.14 mg/kg
- Mean no. of writhing ± SEM (mice [2]; i.p., dose 12.5 mg/kg): 17.2 ± 3.2
- Mean no. of writhing ± SEM (mice [2]; i.p., dose 25 mg/kg): 9.4 ± 2.2
- Mean no. of writhing ± SEM (mice [2]; i.p., dose 50 mg/kg): 2.9 ± 1.9
- Mean no. of writhing ± SEM (mice [2]; i.p., dose 100 mg/kg): 1.4 ± 0.4

Structure (SMILES): COc1nc(C)cc2c1C(=O)N(CN1CCN(c3ccccc3)CC1)C2=O [Compound 1K]
- ED50, writhing test (mice [3]): 2.55 mg/kg
- % Inh. of locomotor activity (mice [4]; dose 2.25 mg/kg): 49.23%
- % Inh. of locomotor activity (mice [4]; dose 4.5 mg/kg): 61.77%
- ED50, influence on the locomotor activity (mice [4]): 2.28 mg/kg
- Thiopental Anesthesia % Prolong. (mice [5]; dose 2.25 mg/kg): 134.1%
- Thiopental Anesthesia % Prolong. (mice [5]; dose 4.5 mg/kg): 199.1%

Structure (SMILES): CCOc1nc(C)cc2c1C(=O)N(CN1CCN(c3cccc(Cl)c3)CC1)C2=O [Compound 14]
- LD50 at 24 h (in vivo): > 2000 mg/kg
- change in vivo at 100 mg/kg (mice [1]; Mus musculus, ip, 0.5 h, hot plate, mice, dose 100 mg/kg, read-out: Prolonged Time (%)): 2.32%
- change in vivo at 200 mg/kg (mice [1]; [11]): 16.8%
- Time of Reaction to Pain Stimulus (s) ± SEM (mice [1]; [8]): 17.6 ± 2.4 s
- Time of Reaction to Pain Stimulus (s) ± SEM (mice [1]; [9]): 20.1 ± 2.3 s
- ED50 (mice [6]): 98 ± 13.3 mg/kg
- inhibition at 25 mg/kg (mice [6]; dose 25 mg/kg): 10.7%
- inhibition at 50 mg/kg (mice [6]; dose 50 mg/kg): 3.5%
- inhibition at 100 mg/kg (mice [6]; dose 100 mg/kg): 52.4%
- inhibition at 200 mg/kg (mice [6]; dose 200 mg/kg): 66%
- Number of impulses ± SEM (30min) (mice [6]; dose 25 mg/kg): 394 ± 70
- Number of impulses ± SEM (30min) (mice [6]; dose 50 mg/kg): 280 ± 46
- Number of impulses ± SEM (30min) (mice [6]; dose 100 mg/kg): 210 ± 40
- Number of impulses ± SEM (30min) (mice [6]; dose 200 mg/kg): 150 ± 48
- ED50 (mice [2]; [10]): 18.4 mg/kg
- Mean no. of writhing ± SEM (mice [2]; i.p., dose 12.5 mg/kg): 15.1 ± 4.2
- Mean no. of writhing ± SEM (mice [2]; i.p., dose 25 mg/kg): 9.1 ± 0.8
- Mean no. of writhing ± SEM (mice [2]; i.p., dose 50 mg/kg): 5.9 ± 1.9
- Mean no. of writhing ± SEM (mice [2]; i.p., dose 100 mg/kg): 1.8 ± 0.3

Structure (SMILES): CN1CC[C@]23c4c5ccc(O)c4O[C@H]2[C@@H](O)C=C[C@H]3[C@H]1C5 [Morphine, reference compound]
- change in vivo at 1 mg/kg (mice [1]; [7]): 33.8%
- change in vivo at 3 mg/kg (mice [1]; [7]): 104%
- change in vivo at 6 mg/kg (mice [1]; [7]): 111%
- ED50 (mice [1]; Mus musculus): 2.55 mg/kg
- Time of Reaction to Pain Stimulus (s) ± SEM (mice [1]; hot plate, mice, dose 1 mg/kg): 19.4 ± 2.1 s
- Time of Reaction to Pain Stimulus (s) ± SEM (mice [1]; hot plate, mice, dose 3 mg/kg): 29.6 ± 6 s
- Time of Reaction to Pain Stimulus (s) ± SEM (mice [1]; hot plate, mice, dose 6 mg/kg): 30.6 ± 3.9 s
- ED50 (mg/kg) ± SEM, writhing test (mice [2]; i.p., confidence limits in parentheses): 2.44 mg/kg
- Mean no. of writhing ± SEM (mice [2]; i.p., dose 1 mg/kg): 16.2 ± 3.51
- Mean no. of writhing ± SEM (mice [2]; i.p., dose 3 mg/kg): 7.5 ± 2.9
- Mean no. of writhing ± SEM (mice [2]; i.p., dose 10 mg/kg): 1.2 ± 0.8

Structure (SMILES): COc1nc(C)cc2c1C(=O)N(CN1CCOCC1)C2=O [Compound 1Q]
- ED50, writhing test (mice [3]): 13.66 mg/kg
- % Inh. of locomotor activity (mice [4]; dose 44 mg/kg): 42.65 * %
- Thiopental Anesthesia % Prolong. (mice [5]; dose 44 mg/kg): 141.7 ** %

Structure (SMILES): COc1ccccc1N1CCN(CN2C(=O)c3cc(C)nc(OC)c3C2=O)CC1 [Compound 1L]
- ED50, writhing test (mice [3]): 6.53 mg/kg
- % Inh. of locomotor activity (mice [4]; dose 12.5 mg/kg): 37.81%
- % Inh. of locomotor activity (mice [4]; dose 25 mg/kg): 40.84%
- % Inh. of locomotor activity (mice [4]; dose 50 mg/kg): 68.25%
- ED50, influence on the locomotor activity (mice [4]): 25.2 mg/kg
- Thiopental Anesthesia % Prolong. (mice [5]; dose 12.5 mg/kg): 111.6%
- Thiopental Anesthesia % Prolong. (mice [5]; dose 25 mg/kg): 133.2%
- Thiopental Anesthesia % Prolong. (mice [5]; dose 50 mg/kg): 184.3%

Structure (SMILES): COc1nc(C)cc2c1C(=O)N(CCCCN1CCc3ccccc3C1)C2=O [Compound 1N]
- ED50, writhing test (mice [3]): 0.72 mg/kg
- % Inh. of locomotor activity (mice [4]; dose 46 mg/kg): 87.48 * %
- Thiopental Anesthesia % Prolong. (mice [5]; dose 23 mg/kg): 100.0%
- Thiopental Anesthesia % Prolong. (mice [5]; dose 46 mg/kg): 286.5%

Structure (SMILES): COc1nc(C)cc2c1C(=O)N(CCCN1CCN(c3ccccc3)CC1)C2=O [Compound 1H]
- ED50, writhing test (mice [3]): 1.03 mg/kg
- % Inh. of locomotor activity (mice [4]; dose 12.5 mg/kg): 47.67%
- % Inh. of locomotor activity (mice [4]; dose 25 mg/kg): 53.84%
- % Inh. of locomotor activity (mice [4]; dose 50 mg/kg): 66.55%
- ED50, influence on the locomotor activity (mice [4]): 15.17 mg/kg
- Thiopental Anesthesia % Prolong. (mice [5]; dose 25 mg/kg): 118%
- Thiopental Anesthesia % Prolong. (mice [5]; dose 50 mg/kg): 194%
